Measurements as given in patent publication US12146167B2 (priority 2021, dated 2024).

How the values were obtained:
Conditions in all cases: pH 7.5
[1] = test system: Cg_MetY (O-acetylhomoserine sulfhydrylase metY, SEQ ID NO: 2); format: biochemical, Corynebacterium glutamicum ATCC 13032
[2] = test system: Hn_MetZ (O-succinylhomoserine sulfhydrylase metZ, SEQ ID NO: 14); format: biochemical, Hyphomonas neptunium ATCC 15444
[3] = test system: Cg_MetY_P2T (O-acetylhomoserine sulfhydrylase variant metY_P2T, SEQ ID NO: 6); format: biochemical, Corynebacterium glutamicum ATCC 13032
[4] = test system: Cv_MetZ (O-succinylhomoserine sulfhydrylase metZ, SEQ ID NO: 10); format: biochemical, Chromobacterium violaceum ATCC 12472

Measured: Product

CS [MM, methyl mercaptane]
yes: all assays above
